Legend:
Test in all cases: relative viability (nuclei count vs DMSO), 5 days (fraction); higher = more cells survive
[1] = tested on: PC-14
In short: (§1)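 Lung cancer cell lines in 1536-well plates were dosed by pin tool the day after seeding, either with one drug alone or with a fixed anchor-drug dose plus five library-drug doses (not always all listed) in √10 steps. After 5 days, cells were fixed and their nuclei stained in one step (final 0.05% Triton X-100, 1% formaldehyde, 1 ug/ml Hoechst), then counted on 4× images. Relative viability is the nuclei count in treated wells divided by that in vehicle wells. Values are medians of duplicate plates.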

[2] = tested on: NCI-H596
In short: as §1

[3] = tested on: LCLC-97TM1
In short: as §1

[4] = tested on: NCI-H441
In short: as §1

[5] = tested on: NCI-H2126
In short: as §1

[6] = tested on: NCI-H2009
In short: as §1

[7] = tested on: NCI-H460
In short: as §1

[8] = tested on: COR-L23
In short: as §1

[9] = tested on: HCC-78
In short: as §1

[10] = tested on: SW 900
In short: as §1

[11] = tested on: NCI-H647
In short: as §1

[12] = tested on: LCLC-103H
In short: as §1

[13] = tested on: HCC-366
In short: as §1

[14] = tested on: ChaGo-K-1
In short: as §1

[15] = tested on: NCI-H1734
In short: as §1

[16] = tested on: LOU-NH91
In short: as §1

[17] = tested on: HARA
In short: as §1

[18] = tested on: NCI-H650
In short: as §1

[19] = tested on: NCI-H1355
In short: as §1

[20] = tested on: 201T
In short: as §1

[21] = tested on: NCI-H1792
In short: as §1

[22] = tested on: HCC-15
In short: as §1

SMILES: COCC1(CO)C(=O)C2CCN1CC2 (configuration not stated) [PRIMA-1MET] + COc1cccc2cc(-c3nc([C@H]4CC[C@H](C(=O)O)CC4)n4ncnc(N)c34)[nH]c12 [OSI-027] (partner 0.5 µM)
- relative viability ([1]; first compound 0.2 µM): 1.01
- relative viability ([1]; first compound 0.6325 µM): 0.779
- relative viability ([1]; first compound 2 µM): 0.975
- relative viability ([1]; first compound 6.325 µM): 0.848
- relative viability ([1]; first compound 20 µM): 0.0163
- relative viability ([2]; first compound 0.2 µM): 0.747
- relative viability ([2]; first compound 0.6325 µM): 0.635
- relative viability ([2]; first compound 2 µM): 0.457
- relative viability ([2]; first compound 6.325 µM): 0.893
- relative viability ([2]; first compound 20 µM): 0.645
- relative viability ([3]; first compound 0.2 µM): 0.306
- relative viability ([3]; first compound 0.6325 µM): 0.554
- relative viability ([3]; first compound 2 µM): 0.582
- relative viability ([3]; first compound 6.325 µM): 0.364
- relative viability ([3]; first compound 20 µM): 0.438
- relative viability ([4]; first compound 0.2 µM): 0.593
- relative viability ([4]; first compound 0.6325 µM): 0.629
- relative viability ([4]; first compound 2 µM): 0.663
- relative viability ([4]; first compound 6.325 µM): 0.611
- relative viability ([4]; first compound 20 µM): 0.313
- relative viability ([5]; first compound 0.2 µM): 0.799
- relative viability ([5]; first compound 0.6325 µM): 0.603
- relative viability ([5]; first compound 2 µM): 0.56
- relative viability ([5]; first compound 6.325 µM): 0.728
- relative viability ([5]; first compound 20 µM): 0.675
- relative viability ([6]; first compound 0.2 µM): 0.699
- relative viability ([6]; first compound 0.6325 µM): 0.578
- relative viability ([6]; first compound 2 µM): 0.643
- relative viability ([6]; first compound 6.325 µM): 0.67
- relative viability ([6]; first compound 20 µM): 0.0063
- relative viability ([7]; first compound 0.2 µM): 0.653
- relative viability ([7]; first compound 0.6325 µM): 0.624
- relative viability ([7]; first compound 2 µM): 0.487
- relative viability ([7]; first compound 6.325 µM): 0.323
- relative viability ([7]; first compound 20 µM): 0.0164
- relative viability ([8]; first compound 0.2 µM): 0.892
- relative viability ([8]; first compound 0.6325 µM): 0.679
- relative viability ([8]; first compound 2 µM): 0.728
- relative viability ([8]; first compound 6.325 µM): 0.744
- relative viability ([8]; first compound 20 µM): 0.0162
- relative viability ([9]; first compound 0.2 µM): 0.385
- relative viability ([9]; first compound 0.6325 µM): 0.345
- relative viability ([9]; first compound 6.325 µM): 0.339
- relative viability ([9]; first compound 20 µM): 0.199
- relative viability ([10]; first compound 0.2 µM): 0.54
- relative viability ([10]; first compound 0.6325 µM): 0.451
- relative viability ([10]; first compound 2 µM): 0.471
- relative viability ([10]; first compound 6.325 µM): 0.362
- relative viability ([10]; first compound 20 µM): 0.0628
- relative viability ([11]; first compound 0.2 µM): 0.684
- relative viability ([11]; first compound 0.6325 µM): 0.837
- relative viability ([11]; first compound 2 µM): 0.508
- relative viability ([11]; first compound 6.325 µM): 0.56
- relative viability ([11]; first compound 20 µM): 0.105
- relative viability ([12]; first compound 0.2 µM): 0.547
- relative viability ([12]; first compound 0.6325 µM): 0.391
- relative viability ([12]; first compound 2 µM): 0.399
- relative viability ([12]; first compound 6.325 µM): 0.481
- relative viability ([12]; first compound 20 µM): 0.409
- relative viability ([13]; first compound 0.2 µM): 0.389
- relative viability ([13]; first compound 0.6325 µM): 0.725
- relative viability ([13]; first compound 2 µM): 0.303
- relative viability ([13]; first compound 6.325 µM): 1.01
- relative viability ([13]; first compound 20 µM): 0.927
- relative viability ([14]; first compound 0.2 µM): 0.581
- relative viability ([14]; first compound 0.6325 µM): 0.518
- relative viability ([14]; first compound 2 µM): 0.522
- relative viability ([14]; first compound 6.325 µM): 0.53
- relative viability ([14]; first compound 20 µM): 0.448
- relative viability ([15]; first compound 0.2 µM): 0.709
- relative viability ([15]; first compound 0.6325 µM): 0.508
- relative viability ([15]; first compound 2 µM): 0.413
- relative viability ([15]; first compound 6.325 µM): 0.532
- relative viability ([15]; first compound 20 µM): 0.0554
- relative viability ([16]; first compound 0.2 µM): 0.806
- relative viability ([16]; first compound 0.6325 µM): 0.719
- relative viability ([16]; first compound 2 µM): 0.589
- relative viability ([16]; first compound 6.325 µM): 0.662
- relative viability ([16]; first compound 20 µM): 0.468
- relative viability ([17]; first compound 0.2 µM): 0.463
- relative viability ([17]; first compound 0.6325 µM): 0.48
- relative viability ([17]; first compound 6.325 µM): 0.59
- relative viability ([17]; first compound 20 µM): 0.417
- relative viability ([18]; first compound 0.2 µM): 0.705
- relative viability ([18]; first compound 2 µM): 0.5
- relative viability ([18]; first compound 6.325 µM): 0.603
- relative viability ([18]; first compound 20 µM): 0.381
- relative viability ([19]; first compound 0.2 µM): 0.361
- relative viability ([19]; first compound 0.6325 µM): 0.353
- relative viability ([19]; first compound 2 µM): 0.316
- relative viability ([19]; first compound 6.325 µM): 0.389
- relative viability ([19]; first compound 20 µM): 0.406
- relative viability ([20]; first compound 0.2 µM): 0.82
- relative viability ([20]; first compound 0.6325 µM): 0.702
- relative viability ([20]; first compound 2 µM): 0.591
- relative viability ([20]; first compound 6.325 µM): 0.759
- relative viability ([20]; first compound 20 µM): 0.747
- relative viability ([21]; first compound 0.2 µM): 0.683
- relative viability ([21]; first compound 0.6325 µM): 0.693
- relative viability ([21]; first compound 2 µM): 0.635
- relative viability ([21]; first compound 6.325 µM): 0.734
- relative viability ([21]; first compound 20 µM): 0.802
- relative viability ([22]; first compound 0.2 µM): 0.534
- relative viability ([22]; first compound 0.6325 µM): 0.616
- relative viability ([22]; first compound 2 µM): 0.526
- relative viability ([22]; first compound 6.325 µM): 0.559
- relative viability ([22]; first compound 20 µM): 0.439
